Experimental data published in patent US11274083B2, “Substituted thiophenyl uracils, salts thereof and the use thereof as herbicidal agents” (Syngenta Crop Protection AG, priority 2017, dated 2022).

Experiments:
Assay type in all cases: in vivo
Alopecurus myosuroides [1] = assay: Herbicidal action post-emergence, greenhouse pot test; conditions: application rate 80 g/ha, scored visually after about 3 weeks vs untreated controls
How it was run: (§1)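 Test plants, treated at the one-leaf stage 2 to 3 weeks after sowing in sandy loam, received a foliar spray at 80 g/ha or lower. Visual damage was rated about 3 weeks later as percent efficacy versus untreated plants.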

Veronica persica [2] = assay: as above; conditions: application rate 80 g/ha
How it was run: as §1

Setaria viridis [3] = assay: as above
How it was run: as §1

Stellaria media [4] = assay: as above; conditions: application rate 80 g/ha
How it was run: as §1

Amaranthus retroflexus [5] = assay: as above
How it was run: as §1

Polygonum convolvulus [6] = assay: as above
How it was run: as §1

Pharbitis purpurea [7] = assay: as above
How it was run: as §1

Echinochloa crus-galli [8] = assay: as above; conditions: application rate 80 g/ha
How it was run: as §1

Matricaria inodora [9] = assay: as above
How it was run: as §1

Abutilon theophrasti [10] = assay: as above
How it was run: as §1

Matricaria inodora [11] = assay: Herbicidal action pre-emergence, greenhouse pot test
Excerpt: Seeds of mono- and dicotyledonous weeds and crop plants were laid out in plastic or organic plant pots and covered with soil. The compounds of the invention formulated in the form of wettable powders (WP) or as emulsion concentrates (EC) were then applied to the surface of the covering soil as an aqueous suspension or emulsion with addition of 0.5% additive at a water application rate equivalent to 600 L/ha. After the treatment, the pots were placed in a greenhouse and kept under good growth conditions for the test plants. After about 3 weeks, the efficacy of the preparations was scored visually as a percentage by comparison with untreated controls. For example, 100% efficacy=plants have died. 0% efficacy=like control plants. Tables B1 to B17 below show the efficacies of selected compounds of the general formula (I) […] aforementioned trial method.

Alopecurus myosuroides [12] = assay: as above; conditions: application rate 320 g/ha
Excerpt: (§2) Seeds of mono- and dicotyledonous weeds and crop plants were laid out in plastic or organic plant pots and covered with soil. The compounds of the invention formulated in the form of wettable powders (WP) or as emulsion concentrates (EC) were then applied to the surface of the covering soil as an aqueous suspension or emulsion with addition of 0.5% additive at a water application rate equivalent to 600 L/ha. After the treatment, the pots were placed in a greenhouse and kept under good growth conditions for the test plants. After about 3 weeks, the efficacy of the preparations was scored visually as a percentage by comparison with untreated controls. For example, 100% efficacy=plants have died. 0% efficacy=like control plants. Tables B1 to B17 below show the efficacies of selected compounds of the general formula (I) according to tables I.1 to I.50 on various harmful plants and an application rate corresponding to 320 g/ha or lower that were obtained by the aforementioned trial method.

Veronica persica [13] = assay: as above
Excerpt: as §2

Hordeum murinum = assay: as above; conditions: application rate 320 g/ha
Excerpt: as §2

Setaria viridis [14] = assay: as above
Excerpt: as §2

Stellaria media [15] = assay: as above
Excerpt: as §2

Amaranthus retroflexus [16] = assay: as above
Excerpt: as §2

Viola tricolor [17] = assay: as above
Excerpt: as §2

Avena fatua = assay: as above; conditions: application rate 320 g/ha
Excerpt: as §2

Polygonum convolvulus [18] = assay: as above
Excerpt: as §2

Pharbitis purpurea [19] = assay: as above; conditions: application rate 320 g/ha
Excerpt: as §2

Echinochloa crus-galli [20] = assay: as above; conditions: application rate 320 g/ha
Excerpt: as §2

Lolium rigidum [21] = assay: as above; conditions: application rate 320 g/ha
Excerpt: as §2

Abutilon theophrasti [22] = assay: as above
Excerpt: as §2

Oryza sativa = assay: Crop compatibility post-emergence, greenhouse pot test
How it was run: (§3)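 Visual % damage versus untreated plants, read about 3 weeks after treatment (100% = plants died, 0% = as control). Crops were sown in sandy loam pots in a greenhouse and sprayed at one-leaf stage with WP/EC compound in water with 0.5% additive, 600 L/ha.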

Zea mays = assay: as above
How it was run: as §3

Triticum aestivum = assay: as above; conditions: application rate 20 g/ha
How it was run: as §3

Viola tricolor [23] = assay: Herbicidal action post-emergence, greenhouse pot test
How it was run: as §1

Cyperus esculentus = assay: Herbicidal action pre-emergence, greenhouse pot test; conditions: application rate 320 g/ha
Excerpt: as §2

Lolium rigidum [24] = assay: Herbicidal action post-emergence, greenhouse pot test; conditions: application rate 80 g/ha
How it was run: as §1

Triticum aestivum (Efficacy in %) (Triticum aestivum)	Structure (SMILES)	Alopecurus myosuroides (Efficacy in %) (Alopecurus myosuroides [1])	Veronica persica (Efficacy in %) (Veronica persica [2])	Setaria viridis (Efficacy in %) (Setaria viridis [3]; application rate 80 g/ha)	Stellaria media (Efficacy in %) (Stellaria media [4])	Amaranthus retroflexus (Efficacy in %) (Amaranthus retroflexus [5]; application rate 80 g/ha)	Polygonum convolvulus (Efficacy in %) (Polygonum convolvulus [6]; application rate 80 g/ha)	Pharbitis purpurea (Efficacy in %) (Pharbitis purpurea [7]; application rate 80 g/ha)	Echinochloa crus-galli (Efficacy in %) (Echinochloa crus-galli [8])	Matricaria inodora (Efficacy in %) (Matricaria inodora [9]; application rate 80 g/ha)	Abutilon theophrasti (Efficacy in %) (Abutilon theophrasti [10]; application rate 80 g/ha)	Alopecurus myosuroides (Efficacy in %) (Alopecurus myosuroides [12])	Veronica persica (Efficacy in %) (Veronica persica [13]; application rate 320 g/ha)	Hordeum murinum (Efficacy in %) (Hordeum murinum)	Setaria viridis (Efficacy in %) (Setaria viridis [14]; application rate 320 g/ha)	Amaranthus retroflexus (Efficacy in %) (Amaranthus retroflexus [16]; application rate 80 g/ha)	Viola tricolor (Efficacy in %) (Viola tricolor [17]; application rate 320 g/ha)	Pharbitis purpurea (Efficacy in %) (Pharbitis purpurea [19])	Echinochloa crus-galli (Efficacy in %) (Echinochloa crus-galli [20])	Lolium rigidum (Efficacy in %) (Lolium rigidum [21])	other results
10%	COC(=O)C(C)(C)OC(=O)C(C)Sc1cc(-n2c(=O)cc(C(F)(F)F)n(C)c2=O)c(F)cc1Cl (stereo not drawn) [I.1-132]	80%	100%	100%	100%	100%	100%	100%	100%	90%	100%	100%	100%	80%	100%	100%	100%	100%	100%	100%	Matricaria inodora (Efficacy in %) (Matricaria inodora [11]; application rate 320 g/ha): 100%; Stellaria media (Efficacy in %) (Stellaria media [15]; application rate 320 g/ha): 100%; Avena fatua (Efficacy in %) (Avena fatua): 90%; Polygonum convolvulus (Efficacy in %) (Polygonum convolvulus [18]; application rate 320 g/ha): 100%; Abutilon theophrasti (Efficacy in %) (Abutilon theophrasti [22]; application rate 320 g/ha): 100%; Oryza sativa (Efficacy in %) (Oryza sativa; application rate 80 g/ha): 20%; Zea mays (Efficacy in %) (Zea mays; application rate 20 g/ha): 20%
20%	COC(=O)C(C)OC(=O)C(C)Sc1cc(-n2c(=O)cc(C(F)(F)F)n(C)c2=O)c(F)cc1Cl (stereo not drawn) [I.1-72]		100%		100%		100%		100%	100%				80%				100%	100%		Setaria viridis (Efficacy in %) (Setaria viridis [3]; application rate 20 g/ha): 100%; Amaranthus retroflexus (Efficacy in %) (Amaranthus retroflexus [5]; application rate 20 g/ha): 100%; Viola tricolor (Efficacy in %) (Viola tricolor [23]; application rate 80 g/ha): 100%; Pharbitis purpurea (Efficacy in %) (Pharbitis purpurea [7]; application rate 20 g/ha): 100%; Abutilon theophrasti (Efficacy in %) (Abutilon theophrasti [10]; application rate 20 g/ha): 100%; Matricaria inodora (Efficacy in %) (Matricaria inodora [11]; application rate 80 g/ha): 100%; Veronica persica (Efficacy in %) (Veronica persica [13]; application rate 80 g/ha): 100%; Setaria viridis (Efficacy in %) (Setaria viridis [14]; application rate 80 g/ha): 100%; Cyperus esculentus (Efficacy in %) (Cyperus esculentus): 100%; Stellaria media (Efficacy in %) (Stellaria media [15]; application rate 80 g/ha): 100%; Amaranthus retroflexus (Efficacy in %) (Amaranthus retroflexus [16]; application rate 20 g/ha): 100%; Viola tricolor (Efficacy in %) (Viola tricolor [17]; application rate 80 g/ha): 100%; Avena fatua (Efficacy in %) (Avena fatua): 90%; Polygonum convolvulus (Efficacy in %) (Polygonum convolvulus [18]; application rate 80 g/ha): 100%; Abutilon theophrasti (Efficacy in %) (Abutilon theophrasti [22]; application rate 80 g/ha): 100%; Oryza sativa (Efficacy in %) (Oryza sativa; application rate 20 g/ha): 10%
20%	CCOC(=O)CC(C)OC(=O)CSc1cc(-n2c(=O)cc(C(F)(F)F)n(C)c2=O)c(F)cc1Cl (stereo not drawn) [I.8-23]		100%	100%	100%	100%			100%		100%		100%	80%	100%	100%	100%	100%	100%	90%	Viola tricolor (Efficacy in %) (Viola tricolor [23]; application rate 20 g/ha): 100%; Polygonum convolvulus (Efficacy in %) (Polygonum convolvulus [6]; application rate 20 g/ha): 100%; Pharbitis purpurea (Efficacy in %) (Pharbitis purpurea [7]; application rate 20 g/ha): 100%; Matricaria inodora (Efficacy in %) (Matricaria inodora [9]; application rate 20 g/ha): 100%; Matricaria inodora (Efficacy in %) (Matricaria inodora [11]; application rate 80 g/ha): 100%; Cyperus esculentus (Efficacy in %) (Cyperus esculentus): 90%; Stellaria media (Efficacy in %) (Stellaria media [15]; application rate 80 g/ha): 100%; Polygonum convolvulus (Efficacy in %) (Polygonum convolvulus [18]; application rate 320 g/ha): 100%; Abutilon theophrasti (Efficacy in %) (Abutilon theophrasti [22]; application rate 320 g/ha): 100%; Oryza sativa (Efficacy in %) (Oryza sativa; application rate 5 g/ha): 20%
20%	COC(=O)CC(C)OC(=O)C(C)Sc1cc(-n2c(=O)cc(C(F)(F)F)n(C)c2=O)c(F)cc1Cl (stereo not drawn) [I.1-22]	80%	100%	100%	100%	100%	100%	100%	100%	100%	100%	80%	100%	100%		100%		100%	100%	100%	Viola tricolor (Efficacy in %) (Viola tricolor [23]; application rate 80 g/ha): 100%; Lolium rigidum (Efficacy in %) (Lolium rigidum [24]): 90%; Matricaria inodora (Efficacy in %) (Matricaria inodora [11]; application rate 80 g/ha): 100%; Setaria viridis (Efficacy in %) (Setaria viridis [14]; application rate 80 g/ha): 100%; Cyperus esculentus (Efficacy in %) (Cyperus esculentus): 90%; Stellaria media (Efficacy in %) (Stellaria media [15]; application rate 80 g/ha): 100%; Viola tricolor (Efficacy in %) (Viola tricolor [17]; application rate 80 g/ha): 100%; Polygonum convolvulus (Efficacy in %) (Polygonum convolvulus [18]; application rate 80 g/ha): 100%; Abutilon theophrasti (Efficacy in %) (Abutilon theophrasti [22]; application rate 80 g/ha): 100%; Oryza sativa (Efficacy in %) (Oryza sativa; application rate 5 g/ha): 0%
20%	CC(Sc1cc(-n2c(=O)cc(C(F)(F)F)n(C)c2=O)c(F)cc1Cl)C(=O)OC1CCOC1=O (stereo not drawn) [I.1-141]	90%	100%		100%	100%	100%	100%	100%	100%	100%	80%	100%	100%	100%	100%	100%	100%	100%	100%	Setaria viridis (Efficacy in %) (Setaria viridis [3]; application rate 20 g/ha): 100%; Matricaria inodora (Efficacy in %) (Matricaria inodora [11]; application rate 320 g/ha): 100%; Stellaria media (Efficacy in %) (Stellaria media [15]; application rate 320 g/ha): 100%; Avena fatua (Efficacy in %) (Avena fatua): 80%; Polygonum convolvulus (Efficacy in %) (Polygonum convolvulus [18]; application rate 320 g/ha): 100%; Abutilon theophrasti (Efficacy in %) (Abutilon theophrasti [22]; application rate 320 g/ha): 100%; Oryza sativa (Efficacy in %) (Oryza sativa; application rate 20 g/ha): 0%; Zea mays (Efficacy in %) (Zea mays; application rate 5 g/ha): 10%
